SMILES strings stand for the structures.

For data set [1] the following is noted: Table 11a; known ionizable lipids, LNP pKa; cited from earlier work.
The format of data set [2] is physicochemical. Particulars: Table 11a. How it is done: In certain embodiments, the pKa of the Ionizable Lipids of the Invention included in the LNP is measured by fluorescent enhancement of an anionic lipophilic dye TNS binding to the LNP containing the ionizable lipid. Prior studies have shown that the TNS pKa needs to be near 6.5 for efficient delivery to liver upon IV administration. The pKa in the aqueous phase can be predicted by software such ACDLabs Percepta, resulting in pKas that are higher than the TNS pKa. Given the importance of the LNP pKa in determining their efficiency, we developed new methods (zeta potential, ^1H NMR, modeling) to link the intrinsic pKa of the ionizable lipid to LNP ionization properties, in order to rationally design effective systems for mRNA delivery.
In certain embodiments, the hydrophilic DMG-PEG forms the shell of the LNP. The amount of nucleic acid is represented by the NP mole ratio of the amine on the ionizable lipid to the phosphate groups on the nucleic acid backbone and is typically 3-6. In certain embodiments, the pKa of the LNP to be in the 6-7 range corresponding to the pH in the early endosome. […] The pKa of the LNP was measured using the pH-dependence of fluorescence enhancement of the anionic dye TNS. In certain embodiments, the pKa-dependent endosomal release mechanism was described as an ion-pairing event between the cationic protonated ionizable lipid and anionic endosomal phospholipids where a divergent cone-shape lipid tail of the ionizable lipid facilitates membrane rupture.

Turning to `CCCCCCCC/C=C\CCCCCCCC(=O)OCC(CN(C)C)OC(=O)CCCCCCC/C=C\CCCCCCCC` (stereo not drawn) [DODAP, 1,2-dioleoyl-3-dimethylammonium propane], the “pKa, TNS” value in data set [1] is recorded as 5.8. In data set [2], the “ΔpKa = Classic-Galas” value stood at 1.8 and the “ΔpKa = Classic-TNS” value was determined as 2.2.

As to `CCCCC/C=C\C/C=C\CCCCCCCCC(CCCCCCCC/C=C\C/C=C\CCCCC)OC(=O)CCCN(C)C` [MC3], the “pKa, TNS” value in data set [1] is 6.44. For the same compound, in data set [2], the “ΔpKa = Classic-Galas” value was determined as 2.66 and the “ΔpKa = Classic-TNS” value is 2.96.

In the case of `CCCCCCCCCCOC(=O)CCCCCN(CCO)CCCCCCCC(=O)OC(CCCCCCCC)CCCCCCCC` [Moderna Lipid H], the “pKa, TNS” value in data set [1] is 6.68. For the same compound, in data set [2], the “ΔpKa = Classic-Galas” value is 3.12 and the “ΔpKa = Classic-TNS” value is given as 2.22.

(Values after US12576040B2, “Ionizable lipids and methods of manufacture and use thereof” (priority 2020, dated 2026).)
